Laboratory results reported in patent US9012492B2, “Apocynin-lipoic acid conjugates and uses thereof” (priority 2011, dated 2015).

How the values were obtained:
[1] = test system: Sprague-Dawley rats; assay: Blood pressure, heart rate and baroreceptor reflex sensitivity; assay type: in vivo, rat
Protocol: Sprague-Dawley rats were used to study the effects of (Ia) on reperfusion injury following stroke in a rodent model. The rats were anesthetized, and injected with (la) (0.01-0.1 mg/kg). After 30 minutes, occlusion of the middle cerebral artery (MCA) was performed.
All experiments were conducted on male Sprague-Dawley rats (total of 229 rats; 250-350 g; Charles River, Montreal, PQ, Canada). For all animals, food and tap water were available ad libitum. Rats were anesthetized with sodium thiobutabarbital (Inactin; Sigma-Aldrich; St. Louis, Mo.; 100 mg/kg ip), which provided a stable plane of anesthesia for the full duration of the experimental time period. To monitor blood pressure and heart rate, a polyethylene catheter (PE-50; Clay Adams, Parsippany, N.J.) was inserted into the right femoral artery. For intravenous administration of drugs, a second polyethylene catheter (PE-10; Clay Adams) was inserted into the right femoral vein. Arterial blood pressure was measured with a pressure transducer (Gould P23 ID, Cleveland, Ohio) connected to a Gould model 2200S polygraph. Heart rate was determined from the pulse pressure using a Gould tachograph (Biotach). […] An endotracheal tube was inserted to facilitate breathing. Body temperature was monitored and maintained at 37±1° C. using a Physitemp feedback system (Physitemp Instruments, Clifton, N.J.).
To determine the effect of the compound of Formula (Ia) (0.1 mg/kg; 1 ml/kg; n=4) or vehicle (25% EtOH; 1 ml/kg; n=4) administration on baseline blood pressure and heart rate, continuous recordings of blood pressure and heart rate were taken prior to and following drug or vehicle administration. Further recordings of the parameters were made at 15, 30, 45, 60, 90, and 120 min following drug administration, at which time the experiment was terminated.
To determine the effect of drug administration on autonomic reflex activation, the baroreceptor reflex was evoked using a bolus intravenous injection of the α-adrenergic receptor agonist, phenylephrine-hydrochloride (Sigma-Aldrich; 0.1 ml; 2.5 μg/ml iv). The ratio of the peak change in the magnitude of the reflex bradycardia to the magnitude of the phenylephrine-induced pressor response [ΔHR (heart rate)/ΔMAP (mean arterial pressure)] was used as a measure of baroreceptor reflex sensitivity (BRS). BRS was tested at 10 min and immediately prior to the compound of Formula (Ia) (0.1 mg/kg; 1 ml/kg; n=3) or vehicle (25% EtOH; 1 ml/kg; n=3) administration. BRS was then tested 15 and 30 min following drug administration (prior to MCAO), and then 5, 10, 20, and 30 min during MCAO (30 min MCAO), as well as 10, 20, 30, 60, 90, 120, 150, 210, 270, and 330 min following suture removal. The experiments were terminated after 5.5 h of reperfusion.

[2] = test system: N27 neuronal cells; assay: DNA fragmentation ELISA after hydrogen peroxide exposure of N27 neuronal cells; assay type: cell-based; details: pretreatment 100 μM
Protocol: Specifically, the effects of (Ia) on oxidative stress in N27 neuronal cells, a dopaminergic cell line were studied. […]
The cells were then lysed, and DNA fragmentation was determined by ELISA assay.

[3] = test system: rat liver microsomes; assay: Metabolic stability using rat liver microsomes; assay type: in vitro ADME; details: RLM
Text: Table 7 summarizes the experimental conditions used in the studies of the metabolic stability of the compound of Formula (Ia) using rat liver microsomes. Table 8 and FIG. 13 show the results from the studies of the metabolic stability of the compound of Formula (Ia) using rat liver microsomes. [table]

[4] = test system: markers of oxidative stress (SOD1, SOD2, GSH, GSSG, H2O2, HNE-His adducts, DNA fragmentation); assay: Markers of oxidative stress in ischemic cortex following I/R; assay type: in vivo, rat
Protocol: To examine the effect of the compound of Formula (Ia) on various markers of oxidative stress throughout the 5.5 h of reperfusion, injections of the optimal dose of the compound of Formula (Ia) (0.1 mg/kg; 1 ml/kg iv; n=5 per group at each time point) or vehicle (25% EtOH; 1 ml/kg iv; n=5 per group at each time point) were made 30 min prior to the onset of MCAO. The sutures were left in place for 30 min. Brains were removed, and cortical tissue was collected at the end of the 30 min of occlusion (no reperfusion), or following 30 min, 1, 2, 4, or 5.5 h of reperfusion. At the end of each time point, animals were perfused transcardially with 200 ml of 100 mM PBS (pH 7.4), and the brains were removed. The ipsilateral cerebral cortex was isolated, and an 8-mm diameter biopsy punch was used to obtain tissue from the ischemic core. The tissue was weighed and homogenized (40% wt/vol) in ice-cold PBS. Aliquots of whole homogenate were frozen at −80° C. immediately for measurements of hydrogen peroxide (H2O2). The remaining sample was diluted 1:2 with ice-cold PBS and centrifuged at 12,000 g for 15 min at 4° C. Aliquots of the supernatant were stored at −80° C. until assayed for protein levels, superoxide dismutase (SOD1 and SOD2) activity, 4-hydroxynonenal-histodine (HNE-His) adducts (OxiSelect Kits, Cell Biolabs, San Diego, Calif.), reduced glutathione (GSH), oxidized glutathione (GSSG; Cayman Chemical, Ann Arbor Mich.), and cytoplasmic enrichment of DNA fragments (apoptosis) (Roche Diagnostics, Montreal, QC, Canada) using selective assay kits according to manufacturer's specifications.

[5] = test system: human liver microsomes (HLM); assay: Metabolic stability using human liver microsomes; assay type: in vitro ADME
Text: Table 9 summarizes the experimental conditions used in the studies of the metabolic stability of the compound of Formula (Ia) using dog liver microsomes and human liver microsomes.

[6] = 0.1 mg/kg iv 30 min prior to I/R, during 30 min MCAO and 5.5 h reperfusion
[7] = 0.1 mg/kg iv, 2-h continuous recording, no stroke

## COc1cc(C(C)=O)ccc1OC(=O)CCCCC1CCSS1 (stereo not drawn) [compound of Formula (Ia)]
[1]; 0.1 mg/kg iv 30 min prior to I/R
  level of BRS depression during MCAO: did not alter the level of BRS depression
[1]; [6]
  mean arterial pressure compared with pre-MCAO values: no significant differences
  mean heart rate compared with pre-MCAO values: no significant differences
[1]; 0.1 mg/kg iv 30 min prior to I/R, within 5 min of the beginning of MCAO, mean±SE
  mean baroreflex sensitivity (BRS): 0.23±0.05 bpm/mmHg
[1]; [7]
  mean HR vs vehicle: did not significantly alter
  mean arterial blood pressure vs vehicle: did not significantly alter
[1]; Example 3, 0.01-0.1 mg/kg, measured continuously over 6 hour period
  systemic blood pressure: no change in systemic blood pressure
[2]
  DNA fragmentation induced by hydrogen peroxide reduced by: 73%
[2]; then hydrogen peroxide (1 mM), n = 4
  DNA cell fragmentation: 138 ± 20 percentage of control
[3]; control (without NADPH)
  % Metabolism in 30 minutes: 0%
  CLintr (mL/min/g liver): >67 mL/min/g liver
[3]; reaction (with NADPH)
  % Metabolism in 30 minutes: 0%
  CLintr (mL/min/g liver): >67 mL/min/g liver
[4]; 0.1 mg/kg iv 30 min prior to MCAO, 4-h time point
  mitochondrial SOD2 activity levels vs vehicle: significantly higher
[4]; 0.1 mg/kg iv 30 min prior to MCAO, after 5.5 h of reperfusion
  oxidized form of GSH (GSSG) vs vehicle: significantly greater
[4]; 0.1 mg/kg iv 30 min prior to MCAO, any time point
  total amount of GSH (oxidized and reduced forms) vs vehicle: No significant differences
[4]; 0.1 mg/kg iv 30 min prior to MCAO, any time point during 5.5 h reperfusion
  cytoplasmic SOD1 activity levels vs vehicle: no significant differences
[4]; 0.1 mg/kg iv 30 min prior to MCAO, any time point over 5.5 h reperfusion
  level of hydrogen peroxide vs vehicle: not significantly greater
[4]; 0.1 mg/kg iv 30 min prior to MCAO, each time point
  DNA fragmentation (apoptotic cell death): No significant changes
[4]; 0.1 mg/kg iv 30 min prior to occlusion, following 2 h of reperfusion
  HNE-His adduct levels vs vehicle: significantly attenuated
[5]; HLM control (without NADPH)
  % Metabolism in 30 minutes: 0%
  CLintr (mL/min/g liver): >67 mL/min/g liver
[5]; HLM reaction (with NADPH)
  % Metabolism in 30 minutes: 0%
  CLintr (mL/min/g liver): >67 mL/min/g liver
